Assay results as given in US6256527A, “Method for determining oxygen concentration” (Nycomed Imaging AS, priority 1995, dated 2001).

Experiment: ESR line widths of nitroxides in degassed benzene
Type: physicochemical
Text: The ESR-spectral properties of a series of partially and fully deuterated nitroxides (compounds 3b-d) also useful in the method of the invention have been investigated. These radicals are derived from 2,5-di-t-butyl-3,4-dimethoxycarbonyl-pyrryloxyl (Compound 3a) and were investigated alongside Tempone (4-oxo-2,2,6,6-tetramethyl-piperidine-1-oxyl, 1) and CTPO (3-carbamoyl-2,2,5,5-tetramethyl-pyrroline-1-yloxyl, 2a) which are typical examples of nitroxides frequently used for imaging purposes.
Instrumentation. The ESR-spectra were recorded by the Upgrade Version ESP 3220-200SH of a Bruker ER-200D SRC instrument at 22°. The radical concentration was in the range 0.1-0.2 mM and the modulation amplitude was 10 mG. The microwave power was well below saturation. NMR-spectra were recorded on a Varian XL-300 spectrometer. Mass spectra were recorded on a VG Quattor II instrument equipped with ESPC electrospray. GLC analyses were performed on a HP 5830 ser II instrument, equipped with a fused-silica column (30 m, 0.25 μm, HP-1701). TLC analyses and column chromotographic separations were performed on Silica Gel 60, using heptane/ether as the eluent.
Preparation of pyrryloxyl radicals. To a degassed solution of 2 mg of the hydroxylamine 7a-7d in 2 ml of benzene was added ca. 10 mg NiOOH. After 5 min the suspension was filtered and the pale green blue solution was diluted with degassed benzene in order to obtain a solution suitable for ESR.
ESR-measurements. Summarised in Table 5 are the ESR line widths for the nitroxides discussed above. […] Perdeuteration results in a reduction of the line width by a factor of 2.2 for 1 and of 2.5 for 2b. […] The spin density distributions, nitrogen coupling constants and intrinsic line widths for 3d are compared in Table 6 to other nitroxides.

| SMILES | ESR Line width (benzene, 23° C.) | also measured |
| --- | --- | --- |
| CC1(C)CC(=O)CC(C)(C)N1[O] [Compound 1, 4-oxo-2,2,6,6-tetramethyl-piperidine-1-oxyl, reference compound] | 602 mg | reduction of the line width by perdeuteration (factor) (degassed benzene, 22° C.): 2.2 |
| [2H]C([2H])([2H])C1(C([2H])([2H])[2H])N([O])C(C([2H])([2H])[2H])(C([2H])([2H])[2H])C([2H])([2H])C(=O)C1([2H])[2H] [Compound 1-d16, 4-oxo-2,2,6,6-tetramethyl-piperidine-d16-1-oxyl, reference compound] | 266 mg | – |
| CC1(C)C=C(C(=O)O)C(C)(C)N1[O] [Compound 2b, 2,2,5,5-tetramethyl-3-pyrrolin-1-oxyl-3-carboxylic acid, reference compound] | 1032 mg | reduction of the line width by perdeuteration (factor) (degassed benzene, 22° C.): 2.5 |
| [2H]C1=C(C(=O)O)C(C([2H])([2H])[2H])(C([2H])([2H])[2H])N([O])C1(C([2H])([2H])[2H])C([2H])([2H])[2H] [Compound 2b-d13, 2,2,5,5-tetramethyl-3-pyrrolin-d13-oxyl-3-carboxylic acid, reference compound] | 407 mg | – |
| COC(=O)c1c(C(=O)OC)c(C(C)(C)C)n([O])c1C(C)(C)C [Compound 3a, 2,5-di-t-butyl-3,4-dimethoxycarbonyl-pyrryloxyl] | 228 mg | – |
| [2H]C([2H])([2H])OC(=O)c1c(C(=O)OC([2H])([2H])[2H])c(C(C)(C)C)n([O])c1C(C)(C)C [Compound 3b] | 172 mg | – |
| [2H]C([2H])([2H])C(c1c(C(=O)OC)c(C(=O)OC)c(C(C([2H])([2H])[2H])(C([2H])([2H])[2H])C([2H])([2H])[2H])n1[O])(C([2H])([2H])[2H])C([2H])([2H])[2H] [Compound 3c] | 219 mg | influence of deuteration of the t-butyl groups alone on line width, 3a:3c (degassed benzene, 22° C.): almost no influence |
| [2H]C([2H])([2H])OC(=O)c1c(C(=O)OC([2H])([2H])[2H])c(C(C([2H])([2H])[2H])(C([2H])([2H])[2H])C([2H])([2H])[2H])n([O])c1C(C([2H])([2H])[2H])(C([2H])([2H])[2H])C([2H])([2H])[2H] [Compound 3d] | 113 mg | decrease of line width by deuteration of the alkyl groups of the ester moiety, 3c:3d (factor) (degassed benzene, 22° C.): 1.9; ESR Line width (degassed benzene, 22° C., high dilution): 113 mg; nitrogen coupling constant (in benzene): 4.4 G |
| CC(C)(C)c1c(C(=O)O)c(C(=O)O)c(C(C)(C)C)n1O [Compound 4, 2.5-di-t-butyl-N-hydroxy-pyrrol-3,4-dicarboxylic acid] | – | ESR line width compared with 3b (upon treatment with NiOOH): almost identical to that of 3b |
